Results reported in patent publication EP4813403A1, “USE OF GLP-1R/GIPR DOUBLE-TARGET AGONIST IN PREPARING ANIMAL DRUG” (Hangzhou Zhongmeihuadong Pharmaceutical Co., Ltd., priority 2023, dated 2025).

How the values were obtained:
[1] = Pharmacokinetics in beagle dogs; format: in vivo; conditions: for MRT: beagle
Procedure: After subcutaneous administration to beagle dogs, plasma was collected and the drug concentration in plasma was determined to illustrate the in vivo pharmacokinetic properties of the compound according to the present invention. The compound of the present invention was administered to a beagle dog (7-9 kg) at a dose of 0.05mg/kg subcutaneously (s.c.). About 500 µL of whole blood was collected from the saphenous vein into an EDTA-K2 anticoagulant tube at predose, 0.5 hours, 1 hour, 2 hours, 6 hours, 10 hours, 24 hours, 48 hours, 72 hours and 96 hours, respectively. The blood samples were centrifuged at 3000 g and at 2°C to 8°C for 10 minutes to obtain plasma, which was stored at -90°C to -60°C for further analysis and assay.
20.0 µL of thawed plasma sample was taken. […] Then 120 µL of 0.1% formic acid in methanol was added to precipitate the protein. The mixture was vortexed for 5 minutes, and centrifuged at 4815g for 10 minutes. 100.0 µL of the supernatant was taken, into which 100 µL of 0.5% aqueous formic acid solution was added. The mixture was vortexed for 5 minutes. 10 µL of the mixture solution was sampled and injected into the LC-MS/MS to determine the drug concentration in plasma.
Based on the drug concentration in plasma of the compound in the beagle dogs, the pharmacokinetic parameters were calculated by applying the software Winnolin 8.3 in a non-compartmental model. Table 11 Average pharmacokinetic parameters after single subcutaneous administration in beagle dogs

[2] = molecular target: T1, mouse GLP-1R (Mus musculus, UniProt O35659); experiment: Agonistic activity on GLP-1R of different species (LANCE Ultra cAMP assay): mouse; format: cell-based; conditions: ratio of EC50 value of other species to human EC50 value
T1 construct: expressed in transfected cells
T1 sequence (O35659 22-463): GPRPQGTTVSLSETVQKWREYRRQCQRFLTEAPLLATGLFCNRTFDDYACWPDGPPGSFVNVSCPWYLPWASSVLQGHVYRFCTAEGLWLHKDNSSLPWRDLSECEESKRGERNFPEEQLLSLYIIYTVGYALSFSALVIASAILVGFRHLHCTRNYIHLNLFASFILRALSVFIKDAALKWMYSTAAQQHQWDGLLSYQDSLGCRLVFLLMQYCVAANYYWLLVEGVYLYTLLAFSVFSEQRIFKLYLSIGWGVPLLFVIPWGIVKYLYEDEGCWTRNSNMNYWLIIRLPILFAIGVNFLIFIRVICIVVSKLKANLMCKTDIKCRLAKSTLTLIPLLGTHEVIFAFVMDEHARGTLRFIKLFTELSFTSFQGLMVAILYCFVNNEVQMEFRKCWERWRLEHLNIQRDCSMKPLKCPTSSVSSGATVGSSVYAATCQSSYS

[3] = tested on: cat GLP-1R; experiment: Agonistic activity on GLP-1R of different species (LANCE Ultra cAMP assay): cat; format: cell-based; conditions: ratio of EC50 value of other species to human EC50 value
Procedure: CHO-K1 cells were seeded in a 6-well plate at 0.6×10^6 cells/well and incubated overnight in an incubator at a temperature of 37 °C and a carbon dioxide concentration of 5%. The next day, CHO-K1 cell media were replaced. Then two tubes A and B were prepared for each plasmid. 100 µL Opti-MEM was added to tube A, then 4 µL Lipofectamine™ 3000 was added and mixed uniformly. 100 µL Opti-MEM was firstly added to tube B, then 2 µg of one of the plasmids (human GLP-1R-pcDNA5 (+) plasmid, cat GLP-1R-pcDNA5 (+) plasmid, human GIPR-pcDNA5 (+) plasmid, cat GIPR-pcDNA5 (+) plasmid) was added and mixed uniformly, and 4 µL P3000™ was added to tube B and mixed uniformly (the ratio of plasmid to transfection reagent was 1 µg: 2 µL). The diluted solution in tube A was added to the diluted solution in tube B, mixed evenly, and incubated at room temperature for 15 minutes. […]
18-20 hours after transfection, human GLP-1R-CHO, cat GLP-1R-CHO, human GIPR-CHO, cat GIPR-CHO cells were resuspended in 1×Casein Stimulation Buffer (HBSS, 5 mM HEPES, 0.5 mM IBMX, 0.1% casein, pH7.4), and seeded into a 384-well cell culture plate at 9 µL/well (cell numbers being 2000, 2000, 1000, 2000 cells/well, respectively). […] The readings at 665 nm and 620 nm were determined with a 330 nm excitation light on a microplate reader. The 665 nm/620 nm reading ratio was calculated. […]

[4] = in vivo; design: species or system cats; conditions: sc, 0.025 mg/kg
Procedure: After subcutaneous administration to cats, plasma was collected and the drug concentration in plasma was determined to illustrate the in vivo pharmacokinetic properties of the compound according to the present invention. […] The blood samples were stored on wet ice and centrifuged (1500-1600 g, 2-8°C, for 10 minutes) within 0.5 hours to obtain plasma, with at least 100 µL of plasma required for each sample. The plasma was then frozen and stored at -90°C to -60°C for subsequent analysis and detection. 30.0 µL of thawed plasma sample were taken, and 300 µL of acetonitrile solution containing an internal standard was added to precipitate the proteins. The mixture was vortexed for 1 minute and then centrifuged at 13,000 rpm for 5 minutes. 165 µL of the supernatant were transferred to a 96-well plate for LC-MS/MS analysis to determine the drug concentration in the plasma. Based on the drug concentration in plasma of the compound in the cats, the pharmacokinetic parameters were calculated by applying the software Winnolin 8.3 in a non-compartmental model. Table 12 Average pharmacokinetic parameters after single subcutaneous administration in cats

[5] = beagle dogs, single subcutaneous administration, 0.05mg/kg
[6] = dog, in vivo, sc, beagle dogs, single subcutaneous administration, 0.05mg/kg

For CC[C@H](C)[C@H](NC(=O)C(C)(C)NC(=O)[C@H](Cc1ccc(O)cc1)NC(=O)[C@H](CC(=O)O)NC(=O)[C@H](CO)NC(=O)[C@@H](NC(=O)C(C)(Cc1ccccc1)NC(=O)[C@@H](NC(=O)CNC(=O)[C@H](CCC(=O)O)NC(=O)C(C)(C)NC(=O)[C@@H](N)Cc1ccc(O)cc1)[C@@H](C)O)[C@@H](C)O)C(=O)NC(C)(C)C(=O)N[C@@H](CC(C)C)C(=O)N[C@@H](CC(=O)O)C(=O)N[C@@H](CCCCN)C(=O)N[C@@H](CCC(N)=O)C(=O)N[C@@H](C)C(=O)N[C@@H](CCC(N)=O)C(=O)N[C@@H](C)C(=O)N[C@@H](CCC(=O)O)C(=O)N[C@@H](Cc1ccccc1)C(=O)N[C@H](C(=O)N[C@@H](CCCCNC(=O)COCCOCCNC(=O)COCCOCCNC(=O)COCCOCCNC(=O)CC[C@H](NC(=O)CCCCCCCCCCCCCCCCCCCCC(=O)O)C(=O)O)C(=O)N[C@@H](Cc1c[nH]c2ccccc12)C(=O)N[C@@H](CC(C)C)C(=O)N[C@@H](CC(C)C)C(=O)N[C@@H](CCCCN)C(=O)NCC(=O)NCC(=O)N1CCC[C@H]1C(=O)N[C@@H](CO)C(=O)N[C@@H](CO)C(=O)NCC(=O)N[C@@H](C)C(=O)N1CCC[C@H]1C(=O)N1CCC[C@H]1C(=O)N1CCC[C@H]1C(=O)N[C@@H](CO)C(=O)N[C@@H](CCCCN)C(N)=O)C(C)C (stereo partly shown) [Compound P016], the AUC(0-t) [1, 5] was 29925 ng·h/mL, the Cmax [1, 5] was 407.33 ng/mL and the Tmax [1, 5] was 19.33 h. The MRT ([1]; dog, in vivo, sc, 0.05 mg/kg, MRT0-inf) was 108 ± 23.2 h, the MRT ([1]; dog, in vivo, sc, 0.05 mg/kg, MRT0-t) was 44.8 ± 4.17 h and the T1/2 ([1]; dog, in vivo, sc, 0.05 mg/kg) was 69.32 h. It also gave an AUC(0-inf) [1, 6] of 52100 ± 14700 ng·h/mL, a half-life [1, 6] of 69.3 ± 14 h and an AUC(0-t) ([1]; dog, in vivo, sc, beagle dogs, single subcutaneous administration, 0.05mg/kg, read-out: AUC0-t) of 29900 ± 5660 ng·h/mL. For the same molecule, the Cmax ([1]; dog, in vivo, sc, beagle dogs, single subcutaneous administration, 0.05mg/kg, read-out: Cmax) was 407 ± 45.8 ng/mL, the Tmax ([1]; dog, in vivo, sc, beagle dogs, single subcutaneous administration, 0.05mg/kg, read-out: Tmax) was 19.3 ± 8.08 h and the “GLP-1R EC50 ratio” value [2] was 1.09. The “GLP-1R EC50 ratio” value [3] was 2.98, the AUC(0-inf) ([4]; both sexes, cat) was 11200 ng·h/mL and the AUC(0-t) ([4]; both sexes, cat) was 9260 ng·h/mL. It also gave a Cmax ([4]; both sexes, cat) of 123 ng/mL, a Tmax ([4]; both sexes, cat) of 24 h and a half-life ([4]; both sexes, cat) of 37.4 h. It also gave an MRT ([4]; both sexes, cat, MRT0-t) of 54.4 h, an MRT ([4]; both sexes, cat, MRT0-∞) of 61.6 h and an AUC(0-t) [4] of 9260 ng·h/mL. It also gave a T1/2 [4] of 37.4 h.
